Data reported in PMC9090415, “Discovery of small molecule inhibitors of Plasmodium falciparum apicoplast DNA polymerase” (Journal of Enzyme Inhibition and Medicinal Chemistry, 2022).
Like-named read-outs stand apart in the source and are kept apart here.

Columns and labels:
[1] = target: P. falciparum apicoplast DNA polymerase (Pf-apPOL) (Plasmodium falciparum, UniProt Q8ILY1); assay: Fluorescence-based high-throughput DNA polymerase assay (molecular beacon), primary screen and dose-response; format: biochemical; details: for DNA Pol: 90 min, 10 µM; for % inhibition apPOL 180' 2.5 / % inhibition apPOL 180' 5 / % inhibition apPOL 180' 10 / % inhibition apPOL 180' 20 / % inhibition apPOL 180' 40 / % inhibition apPOL 180' 80: read at 180'
P. falciparum apicoplast DNA polymerase (Pf-apPOL), sequence (Q8ILY1 entry or part of it): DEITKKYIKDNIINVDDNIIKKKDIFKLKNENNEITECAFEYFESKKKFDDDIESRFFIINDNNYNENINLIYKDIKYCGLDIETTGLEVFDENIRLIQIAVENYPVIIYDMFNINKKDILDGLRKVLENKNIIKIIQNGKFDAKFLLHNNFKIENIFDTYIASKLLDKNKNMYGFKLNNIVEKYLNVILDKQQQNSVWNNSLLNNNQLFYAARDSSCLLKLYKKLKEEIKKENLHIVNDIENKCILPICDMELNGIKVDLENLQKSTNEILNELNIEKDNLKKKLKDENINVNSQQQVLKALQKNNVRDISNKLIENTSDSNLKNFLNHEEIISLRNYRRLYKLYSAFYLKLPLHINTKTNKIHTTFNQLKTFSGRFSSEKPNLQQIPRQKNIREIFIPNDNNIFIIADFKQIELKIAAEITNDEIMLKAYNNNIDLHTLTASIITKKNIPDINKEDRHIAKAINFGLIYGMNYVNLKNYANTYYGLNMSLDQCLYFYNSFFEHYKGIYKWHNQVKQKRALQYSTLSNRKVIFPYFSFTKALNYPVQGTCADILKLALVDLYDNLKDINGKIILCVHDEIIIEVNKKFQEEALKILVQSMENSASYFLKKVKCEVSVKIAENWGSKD
How it was run: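 Single-point screening used 10 µM compound with 20 nM polymerase, 20 nM hairpin substrate and 6 µM dNTPs for 90 min at 25 °C. Confirmatory titrations (2.5–80 µM) followed fluorescence at three times, and IC50 was derived from a fit including a cooperativity term n.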

[2] = system: chloroquine resistant P. falciparum parasites (strain Dd2); assay: Parasite growth inhibition assay in human red blood cells (flow cytometry, acridine orange); format: cell-based; details: Plasmodium falciparum, Erythrocyte
Experimental: The chloroquine resistant P. falciparum parasites (strain Dd2) were cultured in de-identified, IRB-exempt human red blood cells (RBCs) obtained from the American Red Cross and parasite cultures were maintained as described. Parasitaemia (percentage of total RBCs infected) was measured by flow cytometry on an Attune NxT (ThermoFisher) by nucleic-acid staining of cultured RBCs with phosphate-buffered saline (PBS) containing 0.8 µg ml^−1 acridine orange. We began by determining percent growth inhibition at single compound dose (20 µM) for the 102 non-toxic compounds. […] The experiments were initiated with a starting parasitaemia of ∼1% and parasitaemia was measured 72 and 96 h post compound addition. Growth was normalised to parasite cultures with carrier only (DMSO).
We tested the ability of the 102 compounds to kill P. falciparum parasites cultured in human red blood cells. Due to the number of compounds, we used a single inhibitor concentration of 20 µM and performed experiments in triplicate. […] These compounds were then tested in a dose-response format against chloroquine resistant P. falciparum parasites (Dd2) and the resulting data were fit to a sigmoidal growth inhibition curve to determine EC50 values (Figure 5, Table 2). […] Finally, to determine if the compounds were killing the parasites solely via apicoplast disruption, the dose-response curves were also performed with 1 mM isopentylpyrophosphate (IPP) in the growth media (Table 2). […] Very little is known regarding mitochondrial DNA replication in P. falciparum; however, signal sequence identification algorithms have predicted that the other bacterial A-family DNA polymerase residing in P. falciparum is targeted to the mitochondria (PF3D7_0625300)[29]. […] We are currently in the process of cloning and expressing this putative mitochondrial DNA polymerase to determine the effect of these compounds on its activity.

[3] = read-out: IC50 Pf-apPOL, Table 2
[4] = supplemental file 2, sheet IC50 nontoxic compounds, Pf-apPOL
[5] = Dd2 parasites in human RBCs, dose-response, no IPP, read-out: EC50
[6] = Dd2 parasites, 1 mM isopentylpyrophosphate (IPP) in the growth media, read-out: EC50 + IPP

Compound: O=C(O)c1ccc(-c2nc3cc(-c4ccc5nc(-c6ccc(C(=O)O)cc6)[nH]c5c4)ccc3[nH]2)cc1 [Molecule 1]
- IC50 [1, 3]: 5.9 ± 0.9 µM
- IC50 [1, 4]: 5.92 µM
- EC50 [2, 5]: 8.6 ± 0.4 µM
- EC50 [2, 6]: 9.3 ± 0.5 µM

Compound: CCOc1nc2cccc(C(=O)OC(C)OC(=O)OC3CCCCC3)c2n1Cc1ccc(-c2ccccc2-c2nnn[nH]2)cc1 (stereo not shown) [Molecule 94]
- IC50 [1, 3]: 7.6 ± 0.6 µM
- IC50 [1, 4]: 7.66 µM
- EC50 [2, 5]: 4.6 ± 0.2 µM
- EC50 [2, 6]: 3.7 ± 0.5 µM

Compound: COc1ccc(CNC(=O)Cn2nc3c(c2NC(=O)Cc2cccs2)CSC3)cc1 [Molecule 55]
- IC50 [1, 3]: 10 ± 2 µM
- IC50 [1, 4]: 10.5 µM
- EC50 [2, 5]: 3.5 ± 0.3 µM
- EC50 [2, 6]: 4.3 ± 0.2 µM

Compound: OC(C#Cc1ccccc1)c1ccco1 (stereo not shown) [Molecule 95]
- IC50 [1, 3]: 7.4 ± 0.4 µM
- IC50 [1, 4]: 7.4 µM
- EC50 [2, 5]: 7.5 ± 0.5 µM
- EC50 [2, 6]: 7.4 ± 0.4 µM

Compound: Cc1cccc2c(C(=O)NC(C)C)cc(N(C)C)nc12 [Molecule 47, CC(NC(=O)c1cc(nc2c1cccc2C)N(C)C)C]
- DNA Pol ([1]; 'DNA Pol' of the 186 hits list (primary screen value)): 22
- DNA Pol ([1]; DNA Pol (primary screen value)): 22
- % inhibition Apo pol 10' ([1]; DRC-1, concentration 2.5): 6.184%
- % inhibition Apo pol 10' ([1]; DRC-1, concentration 5): 4.255%
- % inhibition Apo pol 10' ([1]; DRC-1, concentration 10): 30.9701%
- % inhibition Apo pol 10' ([1]; DRC-1, concentration 20): 57.6029%
- % inhibition Apo pol 10' ([1]; DRC-1, concentration 40): 72.1055%
- % inhibition Apo pol 10' ([1]; DRC-1, concentration 80): 75.9231%
- % inhibition Apol 90' ([1]; DRC-1, concentration 2.5): 2.22%
- % inhibition Apol 90' ([1]; DRC-1, concentration 5): 0.7023%
- % inhibition Apol 90' ([1]; DRC-1, concentration 10): 20.6995%
- % inhibition Apol 90' ([1]; DRC-1, concentration 20): 44.2849%
- % inhibition Apol 90' ([1]; DRC-1, concentration 40): 67.2168%
- % inhibition Apol 90' ([1]; DRC-1, concentration 80): 75.4674%
- % inhibition apPOL 180' ([1]; DRC-1, concentration 2.5): 2.5191%
- % inhibition apPOL 180' ([1]; DRC-1, concentration 5): -0.7995%
- % inhibition apPOL 180' ([1]; DRC-1, concentration 10): 11.775%
- % inhibition apPOL 180' ([1]; DRC-1, concentration 20): 29.3384%
- % inhibition apPOL 180' ([1]; DRC-1, concentration 40): 56.4011%
- % inhibition apPOL 180' ([1]; DRC-1, concentration 80): 69.9021%
- % inhibition Apo pol 5' ([1]; DRC-2, concentration 2.5): 7%
- % inhibition Apo pol 5' ([1]; DRC-2, concentration 5): 13%
- % inhibition Apo pol 5' ([1]; DRC-2, concentration 10): 21%
- % inhibition Apo pol 5' ([1]; DRC-2, concentration 20): 37%
- % inhibition Apo pol 5' ([1]; DRC-2, concentration 40): 47%
- % inhibition Apo pol 5' ([1]; DRC-2, concentration 80): 35%
- % inhibition Apol 40' ([1]; DRC-2, concentration 2.5): 6.48%
- % inhibition Apol 40' ([1]; DRC-2, concentration 5): 14%
- % inhibition Apol 40' ([1]; DRC-2, concentration 10): 25%
- % inhibition Apol 40' ([1]; DRC-2, concentration 20): 43%
- % inhibition Apol 40' ([1]; DRC-2, concentration 40): 62%
- % inhibition Apol 40' ([1]; DRC-2, concentration 80): 58%
- % inhibition ApPOL 90' ([1]; DRC-2, concentration 2.5): 6%
- % inhibition ApPOL 90' ([1]; DRC-2, concentration 5): 11%
- % inhibition ApPOL 90' ([1]; DRC-2, concentration 10): 21%
- % inhibition ApPOL 90' ([1]; DRC-2, concentration 20): 41%
- % inhibition ApPOL 90' ([1]; DRC-2, concentration 40): 64%
- % inhibition ApPOL 90' ([1]; DRC-2, concentration 80): 63%
- % inhibition apPOL 180' ([1]; DRC-2, concentration 2.5): 1.25%
- % inhibition apPOL 180' ([1]; DRC-2, concentration 5): 6.35%
- % inhibition apPOL 180' ([1]; DRC-2, concentration 10): 14%
- % inhibition apPOL 180' ([1]; DRC-2, concentration 20): 31%
- % inhibition apPOL 180' ([1]; DRC-2, concentration 40): 60%
- % inhibition apPOL 180' ([1]; DRC-2, concentration 80): 66%

Compound: Cc1cc2[nH]c(C(=O)Nc3ccc(F)cc3)c(CN3CCOCC3)c2s1 [Molecule 60, Fc1ccc(cc1)NC(=O)c1[nH]c2c(c1CN1CCOCC1)sc(c2)C]
- DNA Pol ([1]; 186 hits, DNA Pol (screen value), unit not given): 24
- DNA Pol ([1]; 'DNA Pol' (screen value), unit not given): 24
- % inhibition Apo pol 10' 2.5 ([1]; DRC-1, read at 10', concentration 2.5): -2.4883%
- % inhibition Apo pol 10' 5 ([1]; DRC-1, read at 10', concentration 5): 6.203%
- % inhibition Apo pol 10' 10 ([1]; DRC-1, read at 10', concentration 10): 25.0572%
- % inhibition Apo pol 10' 20 ([1]; DRC-1, read at 10', concentration 20): 44.6815%
- % inhibition Apo pol 10' 40 ([1]; DRC-1, read at 10', concentration 40): 69.9494%
- % inhibition Apo pol 10' 80 ([1]; DRC-1, read at 10', concentration 80): 76.8011%
- % inhibition Apol 90' 2.5 ([1]; DRC-1, read at 90', concentration 2.5): -5.041%
- % inhibition Apol 90' 5 ([1]; DRC-1, read at 90', concentration 5): 0.952%
- % inhibition Apol 90' 10 ([1]; DRC-1, read at 90', concentration 10): 13.5518%
- % inhibition Apol 90' 20 ([1]; DRC-1, read at 90', concentration 20): 29.567%
- % inhibition Apol 90' 40 ([1]; DRC-1, read at 90', concentration 40): 56.5635%
- % inhibition Apol 90' 80 ([1]; DRC-1, read at 90', concentration 80): 73.0205%
- % inhibition apPOL 180' 2.5 ([1]; DRC-1, concentration 2.5): -7.929%
- % inhibition apPOL 180' 5 ([1]; DRC-1, concentration 5): -4.0377%
- % inhibition apPOL 180' 10 ([1]; DRC-1, concentration 10): 4.226%
- % inhibition apPOL 180' 20 ([1]; DRC-1, concentration 20): 14.1958%
- % inhibition apPOL 180' 40 ([1]; DRC-1, concentration 40): 39.4222%
- % inhibition apPOL 180' 80 ([1]; DRC-1, concentration 80): 63.0707%
- % inhibition Apo pol 5' ([1]; DRC-2, concentration 40): 38%
- % inhibition ApPOL 90' ([1]; DRC-2, concentration 20): 38%
- % inhibition Apo pol 5' 2.5 ([1]; DRC-2, read at 5', concentration 2.5): -2.34%
- % inhibition Apo pol 5' 5 ([1]; DRC-2, read at 5', concentration 5): 3.5%
- % inhibition Apo pol 5' 10 ([1]; DRC-2, read at 5', concentration 10): 20%
- % inhibition Apo pol 5' 20 ([1]; DRC-2, read at 5', concentration 20): 33%
- % inhibition Apo pol 5' 40 ([1]; DRC-2, read at 5', concentration 40): 38%
- % inhibition Apo pol 5' 80 ([1]; DRC-2, read at 5', concentration 80): 36%
- % inhibition Apol 40' 2.5 ([1]; DRC-2, read at 40', concentration 2.5): 0.384%
- % inhibition Apol 40' 5 ([1]; DRC-2, read at 40', concentration 5): 3.72%
- % inhibition Apol 40' 10 ([1]; DRC-2, read at 40', concentration 10): 21%
- % inhibition Apol 40' 20 ([1]; DRC-2, read at 40', concentration 20): 40%
- % inhibition Apol 40' 40 ([1]; DRC-2, read at 40', concentration 40): 57%
- % inhibition Apol 40' 80 ([1]; DRC-2, read at 40', concentration 80): 60%
- % inhibition ApPOL 90' 2.5 ([1]; DRC-2, read at 90', concentration 2.5): 0.312%
- % inhibition ApPOL 90' 5 ([1]; DRC-2, read at 90', concentration 5): 2.6%
- % inhibition ApPOL 90' 10 ([1]; DRC-2, read at 90', concentration 10): 18%
- % inhibition ApPOL 90' 20 ([1]; DRC-2, read at 90', concentration 20): 38%
- % inhibition ApPOL 90' 40 ([1]; DRC-2, read at 90', concentration 40): 59%
- % inhibition ApPOL 90' 80 ([1]; DRC-2, read at 90', concentration 80): 65%
- % inhibition apPOL 180' 2.5 ([1]; DRC-2, concentration 2.5): -2.7%
- % inhibition apPOL 180' 5 ([1]; DRC-2, concentration 5): -0.247%
- % inhibition apPOL 180' 10 ([1]; DRC-2, concentration 10): 11%
- % inhibition apPOL 180' 20 ([1]; DRC-2, concentration 20): 28%
- % inhibition apPOL 180' 40 ([1]; DRC-2, concentration 40): 53%
- % inhibition apPOL 180' 80 ([1]; DRC-2, concentration 80): 66%
